This is an account of results in PubChem BioAssay (NCI).

Several values for one entry are separate records, joined by “and”; a condition that tells them apart may be missing. Equal entries are not always repeated.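 Five concentrations, 48 hours, 96-well plates. The concentration for 50% growth inhibition is given as GI50. TGI denotes the concentration required for complete inhibition of growth.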 Some results are limits rather than exact numbers.

Among the test systems are A498 renal; COLO 205 colon; HCT-116 colon; HS 578T breast; K-562 leukemia; KM12 colon; MCF7 breast; NCI-H226 lung; RXF 393 renal; SW-620 colon.
Common to all, as to assay: inhibition of tumour cell growth, NCI panel, 48 h

Turning to `O=Cc1ccc(-c2ccc(-c3nc4ccccc4s3)cc2)o1`, the GI50 in the assay on A498 renal is 3.21 µM; in the assay with COLO 205 colon, greater than 100 µM; in the assay on HCT-116 colon, greater than 100 µM; in the assay on HS 578T breast it was greater than 100 µM; with K-562 leukemia, greater than 100 µM; in the assay on KM12 colon, 46.5 µM. The GI50 with MCF7 breast is 1.53 µM; with NCI-H226 lung, 5.03 µM; with RXF 393 renal, 62.7 µM; with SW-620 colon, 89 µM. Besides, the TGI was 18.8 µM with A498 renal; greater than 100 µM with COLO 205 colon; greater than 100 µM in the assay with HCT-116 colon; greater than 100 µM in the assay on HS 578T breast; greater than 100 µM in the assay with K-562 leukemia; greater than 100 µM in the assay on KM12 colon. Further, the TGI is 56.6 µM with MCF7 breast, greater than 100 µM in the assay with NCI-H226 lung, greater than 100 µM with RXF 393 renal and greater than 100 µM with SW-620 colon.
In the case of `OCC1OC(N2C=C(c3nc4ccccc4s3)C3C=CC=CC32)C(O)C(O)C1O` (stereo unspecified), the GI50 in the assay with A498 renal is 16 µM; in the assay with COLO 205 colon, 9.38 µM; in the assay with HCT-116 colon, 11.5 µM; in the assay with HS 578T breast, 20.1 µM; with K-562 leukemia, 19 µM; in the assay with KM12 colon it was 11 µM. The GI50 in the assay with MCF7 breast is 18.1 µM; in the assay on NCI-H226 lung, 14.5 µM; in the assay with RXF 393 renal, 18.9 µM; with SW-620 colon, 21 µM. The TGI was 38.3 µM in the assay with A498 renal; 20.9 µM with COLO 205 colon; 42.4 µM with HCT-116 colon; greater than 50 µM with HS 578T breast; greater than 50 µM in the assay with K-562 leukemia; 24.3 µM with KM12 colon. Also, the TGI in the assay with MCF7 breast, in the assay on NCI-H226 lung, in the assay with RXF 393 renal and in the assay with SW-620 colon was greater than 50 µM each time.
Turning to `CN1CCc2ccccc2C1Cc1ccccc1NC(=O)c1sc2ccccc2c1Cl` (stereo unspecified), the TGI in the assay on A498 renal, with COLO 205 colon, in the assay with HCT-116 colon, in the assay with HS 578T breast, with K-562 leukemia and in the assay on KM12 colon was greater than 100 µM in each case. For the same compound, the TGI in the assay with MCF7 breast, in the assay on NCI-H226 lung, with RXF 393 renal and in the assay on SW-620 colon was greater than 100 µM throughout.
For `COc1ccc(Nc2ncc(I)c(NCCCNC(=O)C3CCC3)n2)cc1`, the GI50 in the assay with A498 renal was 7.25 µM; in the assay on COLO 205 colon, 3.07 µM; in the assay on HCT-116 colon it was 4.01 µM; in the assay with HS 578T breast it was 2.94 µM; in the assay on K-562 leukemia it was 8.99 µM; in the assay with KM12 colon, 3.42 µM. Also, the GI50 was 8.31 µM in the assay on MCF7 breast, 3.91 µM in the assay with NCI-H226 lung, 1.27 µM in the assay with RXF 393 renal and 9.28 µM with SW-620 colon. The TGI in the assay with A498 renal was 21.7 µM; in the assay with COLO 205 colon, 12.2 µM; with HCT-116 colon, 20.6 µM; with HS 578T breast, 13.2 µM; in the assay on K-562 leukemia, greater than 100 µM; in the assay on KM12 colon, greater than 100 µM. Moreover, the TGI with MCF7 breast is greater than 100 µM; in the assay on NCI-H226 lung, 67.1 µM; in the assay with RXF 393 renal, 6.54 µM; with SW-620 colon it was greater than 100 µM.
On to `CC[C@]12CN3CCc4c([nH]c5ccccc45)[C@@](C(=O)OC)(c4cc5c(cc4OC)N(C)[C@H]4[C@@](O)(C(=O)OC)[C@H](OC(C)=O)[C@]6(CC)C=CCN7CC[C@]54[C@@H]76)CC(C3)[C@H]1O2` (stereo partly specified), for which the GI50 is 0.241 µM in the assay on A498 renal; 0.092 µM in the assay with COLO 205 colon; 0.147 µM in the assay on HCT-116 colon; 0.0499 µM in the assay with K-562 leukemia; 0.105 µM in the assay on KM12 colon; 0.0181 µM in the assay with MCF7 breast. For the same compound, the GI50 with NCI-H226 lung was 0.462 µM; in the assay with SW-620 colon, 0.155 µM. The TGI in the assay with COLO 205 colon was 1.03 µM and 0.387 µM; in the assay with HCT-116 colon it was greater than 100 µM; in the assay on HS 578T breast, 72.3 µM; in the assay with K-562 leukemia it was greater than 50 µM; in the assay with MCF7 breast, greater than 33.9 µM; in the assay with NCI-H226 lung it was greater than 50 µM. In addition, the TGI in the assay on RXF 393 renal and in the assay with SW-620 colon was greater than 100 µM in each case.
On to `COc1ccc2c(n1)Sc1nc3ccccc3nc1N2`, for which the TGI with A498 renal, in the assay on COLO 205 colon, with HCT-116 colon, in the assay with HS 578T breast, in the assay with K-562 leukemia and in the assay with KM12 colon was greater than 100 µM in each case. In addition, the TGI in the assay on MCF7 breast is greater than 100 µM; with NCI-H226 lung, 34 µM; with RXF 393 renal it was greater than 100 µM; in the assay with SW-620 colon, greater than 100 µM.
On to `COc1cc(-n2cc(-c3ccc(Cl)cc3)n(-c3ccccc3)c2=O)cc(OC)c1OC`, for which the GI50 in the assay with A498 renal was 15.1 µM; with COLO 205 colon, 11.7 µM; with HCT-116 colon, 13.7 µM; with HS 578T breast, 25.6 µM; with K-562 leukemia it was 13.6 µM; with KM12 colon it was 23.3 µM. Also, the GI50 was 15.9 µM in the assay with MCF7 breast, 29.9 µM in the assay on NCI-H226 lung, 24.5 µM with RXF 393 renal and 27.1 µM in the assay with SW-620 colon. Also, the TGI in the assay with A498 renal is 74.5 µM; with COLO 205 colon, 44.2 µM; in the assay on HCT-116 colon, greater than 89 µM; in the assay with HS 578T breast it was greater than 100 µM; with K-562 leukemia, greater than 100 µM; with KM12 colon, greater than 100 µM. The TGI was 56 µM in the assay on MCF7 breast, 97.1 µM in the assay with NCI-H226 lung, greater than 100 µM with RXF 393 renal and greater than 100 µM in the assay on SW-620 colon.
In the case of `Oc1ccc(N=Nc2ccc(Br)cc2)c(O)c1`, the GI50 is 3.26 µM in the assay with A498 renal; 17.8 µM in the assay on COLO 205 colon; 3.25 µM with HCT-116 colon; 2.2 µM in the assay with HS 578T breast; 1.31 µM in the assay on K-562 leukemia; 3.31 µM with KM12 colon. Further, the GI50 was 2.2 µM with MCF7 breast, 7.91 µM in the assay on NCI-H226 lung, 1.19 µM in the assay with RXF 393 renal and 3.64 µM in the assay on SW-620 colon. Also, the TGI with A498 renal amounted to 20.7 µM; in the assay on COLO 205 colon, 48.9 µM; with HCT-116 colon, 14.1 µM; in the assay with HS 578T breast, 6.77 µM; with K-562 leukemia it was 3.75 µM; in the assay on KM12 colon it was 39.8 µM. For the same compound, the TGI with MCF7 breast is 54.3 µM; in the assay with NCI-H226 lung, 42.9 µM; in the assay on RXF 393 renal, 9.56 µM; with SW-620 colon, greater than 100 µM.
With `COc1cc2c(/C=C3\C(=O)N(C)c4ccccc43)c[nH]c2cc1C`, the GI50 with A498 renal was 4.96 µM; in the assay with COLO 205 colon, 1.58 µM; in the assay with HCT-116 colon, 0.369 µM; in the assay on HS 578T breast, 3.61 µM; with K-562 leukemia it was 1.68 µM; with KM12 colon, 0.735 µM. Further, the GI50 in the assay with MCF7 breast was 0.12 µM; in the assay on NCI-H226 lung it was 20.3 µM; in the assay with RXF 393 renal it was 2.56 µM; in the assay on SW-620 colon it was 1.68 µM. Further, the TGI was 48.9 µM with A498 renal; greater than 100 µM in the assay on COLO 205 colon; greater than 41.7 µM in the assay with HCT-116 colon; greater than 38.8 µM in the assay on HS 578T breast; greater than 100 µM in the assay with K-562 leukemia; greater than 100 µM in the assay on KM12 colon. For the same compound, the TGI was greater than 100 µM in the assay with MCF7 breast, greater than 58.1 µM in the assay with NCI-H226 lung, 69.9 µM in the assay with RXF 393 renal and greater than 100 µM in the assay with SW-620 colon.
`Nc1nc(Sc2ccc([N+](=O)[O-])c3nonc23)c2ncn(C3OC(CO)C(O)C3O)c2n1` (stereo unspecified): the GI50 is 2.28 µM in the assay on A498 renal; 2.59 µM in the assay with COLO 205 colon; 0.428 µM with HCT-116 colon; 7.89 µM in the assay with HS 578T breast; 0.279 µM with K-562 leukemia; 2.89 µM with KM12 colon. Also, the GI50 was 0.373 µM in the assay on MCF7 breast, 2.2 µM in the assay on NCI-H226 lung, 10.4 µM with RXF 393 renal and 1.12 µM in the assay with SW-620 colon. In addition, the TGI in the assay on A498 renal is 14 µM; in the assay on COLO 205 colon it was 14.4 µM; with HCT-116 colon, 13.6 µM; in the assay on HS 578T breast, 46.3 µM; in the assay with K-562 leukemia, greater than 90.5 µM; in the assay with KM12 colon, greater than 64.1 µM. Besides, the TGI with MCF7 breast is 13.6 µM; in the assay on NCI-H226 lung, 29 µM; in the assay with RXF 393 renal it was greater than 62.5 µM; in the assay with SW-620 colon, greater than 35 µM.
As to `COc1cc2c3c(n(CCCN=[N+]=[N-])c(=O)c2cc1OC)-c1ccc(F)cc1C3=O`, the GI50 was 39.6 µM in the assay on A498 renal; 23.8 µM in the assay on COLO 205 colon; 4.2 µM in the assay on HCT-116 colon; greater than 100 µM with HS 578T breast; 19.3 µM in the assay with K-562 leukemia; 41.2 µM in the assay on KM12 colon. For the same compound, the GI50 in the assay on MCF7 breast is 3.78 µM; in the assay on NCI-H226 lung it was 43.2 µM; in the assay with RXF 393 renal, greater than 100 µM; in the assay with SW-620 colon, 6.29 µM. Besides, the TGI in the assay on A498 renal, in the assay with COLO 205 colon, in the assay on HCT-116 colon, in the assay with HS 578T breast, in the assay on K-562 leukemia and in the assay on KM12 colon was greater than 100 µM each time. Further, the TGI in the assay with MCF7 breast, in the assay with NCI-H226 lung, in the assay with RXF 393 renal and in the assay on SW-620 colon was greater than 100 µM in each case.
Consider `COc1cccc(S(=O)(=O)NC2=NCCN2C(=S)SN2CCn3c2nsc3=S)c1`, for which the GI50 is 68.4 µM in the assay on A498 renal; 17.8 µM in the assay on COLO 205 colon; 16.4 µM in the assay with HCT-116 colon; 90.3 µM with HS 578T breast; 31.4 µM in the assay with K-562 leukemia; 30.5 µM in the assay with KM12 colon. For the same compound, the GI50 in the assay with MCF7 breast is 39.4 µM; in the assay with NCI-H226 lung, 30.9 µM; in the assay with RXF 393 renal, 16.8 µM; with SW-620 colon, 34 µM. Further, the TGI with A498 renal is greater than 100 µM; in the assay on COLO 205 colon it was 39.6 µM; in the assay with HCT-116 colon, 33 µM; with HS 578T breast, greater than 100 µM; with K-562 leukemia, 92.3 µM; in the assay on KM12 colon it was 80.1 µM. Also, the TGI is greater than 100 µM with MCF7 breast, greater than 100 µM with NCI-H226 lung, 46.9 µM in the assay on RXF 393 renal and greater than 100 µM in the assay on SW-620 colon.
